Test results as given in patent US7414142B2 (Wyeth, priority 2005, dated 2008).
pEC50, pIC50: −log10 of the molar value. “And” between values parts separate entries of the source, which are not always exact repeats. Equal entries are not always repeated.

The compounds below were run against T1, progesterone receptor (PR) (Homo sapiens, UniProt P06401) (assay: T47D cell alkaline phosphatase assay). Conditions: T47D; read-out: Alk. Phos. % inh @ 3 μM.
T1 construct: endogenous in cells; host or cells: T47D cells
T1 sequence (P06401 1-933): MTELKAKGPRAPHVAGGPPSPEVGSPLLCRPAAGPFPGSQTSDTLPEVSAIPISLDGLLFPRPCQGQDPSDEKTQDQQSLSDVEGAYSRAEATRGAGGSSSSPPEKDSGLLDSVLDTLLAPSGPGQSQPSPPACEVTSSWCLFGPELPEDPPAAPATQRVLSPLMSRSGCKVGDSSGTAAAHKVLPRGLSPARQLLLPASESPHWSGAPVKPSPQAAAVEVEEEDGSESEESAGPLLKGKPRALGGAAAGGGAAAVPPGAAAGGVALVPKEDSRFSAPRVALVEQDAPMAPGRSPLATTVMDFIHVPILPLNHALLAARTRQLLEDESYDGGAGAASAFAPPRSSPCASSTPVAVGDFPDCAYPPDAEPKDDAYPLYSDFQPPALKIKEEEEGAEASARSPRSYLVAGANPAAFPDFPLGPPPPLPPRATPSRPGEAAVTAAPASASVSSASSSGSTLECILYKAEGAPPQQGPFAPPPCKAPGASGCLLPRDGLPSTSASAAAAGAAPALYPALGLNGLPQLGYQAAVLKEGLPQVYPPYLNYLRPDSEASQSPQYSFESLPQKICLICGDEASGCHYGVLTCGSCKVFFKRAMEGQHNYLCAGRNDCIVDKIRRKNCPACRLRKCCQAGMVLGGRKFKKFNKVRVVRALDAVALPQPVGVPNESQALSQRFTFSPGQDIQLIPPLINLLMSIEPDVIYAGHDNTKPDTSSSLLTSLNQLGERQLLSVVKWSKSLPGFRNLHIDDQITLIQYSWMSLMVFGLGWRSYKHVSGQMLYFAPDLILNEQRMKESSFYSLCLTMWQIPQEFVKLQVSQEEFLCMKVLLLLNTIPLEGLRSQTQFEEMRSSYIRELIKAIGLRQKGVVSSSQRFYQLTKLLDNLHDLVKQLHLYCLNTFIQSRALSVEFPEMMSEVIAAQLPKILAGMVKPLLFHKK
Assay type: cell-based
Description: (i) Purpose: To identify progestins or antiprogestins by determining a compound's effect on alkaline phosphatase activity in T47D cells.
A. Reagents • (i) Culture Medium: • DMEM:F12 (1:1) (GIBCO, BRL) supplemented with 5% (v/v) charcoal stripped fetal bovine serum (not heat-inactivated), 100U/mL penicillin, […] streptomycin, and 2 mM the GlutaMax™ reagent (GIBCO, BRL). • (ii) Alkaline phosphatase assay buffer: • I. 0.1 M Tris-HCl, pH 9.8, containing 0.2% the Triton™ X-100 reagent; • II. 0.1 M Tris-HCl, pH 9.8 containing 4 mM p-nitrophenyl phosphate (Sigma).
B. Cell Culture and Treatment • Frozen T47D cells were thawed in a 37° C. water bath and diluted to 280,000 cells/mL in culture medium. To each well in a 96-well plate (Falcon, Becton Dickinson Labware), 180 ? L of diluted cell suspension was added. Twenty ? L of reference or test compounds diluted in the culture medium was then added to each well. […] The cells were incubated at 37° C. in a 5% CO2/humidified atmosphere for 24 hours. • Note: For high throughput screening, one concentration of each compound was tested at 0.3 mg/mL. Based on an average molecular weight of 300 g/mol for the compounds in the library, the concentration was approximately 1 mM.
C. Alkaline Phosphatase Enzyme Assay • At the end of treatment, the medium was removed from the plate. Fifty ? L of assay buffer I was added to each well. The plates were shaken in a titer plate shaker for 15 minutes. Then 150 ? L of assay buffer II was added to each well.
Square root-transformed data were used for analysis of variance and nonlinear dose response curve fitting for both agonist and antagonist modes. Huber weighting was used to downweight the effects of outliers. EC50 or IC50 values were calculated from the retransformed values. JMP software (SAS Institute, Inc.) was used for both one-way analysis of variance and non-linear dose response analyses in both single dose and dose response studies.

inhibition at 3 µM [%]	Structure (SMILES)
65	Cc1cccc(-c2ccc3c(c2)C(C)(C)C/C3=N\O)c1 [Example 37, (1E)-3,3-dimethyl-5-(3-methylphenyl)indan-1-one oxime]
70	CC1(C)C/C(=N\O)c2ccc(-c3cccc(Cl)c3)cc21 [Example 36, (1E)-5-(3-chlorophenyl)-3,3-dimethylindan-1-one oxime]
63	COc1ccc(-c2ccc3c(c2)C(C)(C)C/C3=N\O)cc1 [Example 35, (1E)-5-(4-methoxyphenyl)-3,3-dimethylindan-1-one oxime]
100	CC1(C)C/C(=N\O)c2ccc(-c3ccc(Cl)cc3)cc21 [Example 33, (1E)-5-(4-chlorophenyl)-3,3-dimethylindan-1-one oxime]
30	CC1(C)C/C(=N\O)c2ccc(-c3cc(Cl)cc(Cl)c3)cc21 [Example 39, (1E)-5-(3,5-dichlorophenyl)-3,3-dimethylindan-1-one oxime]
62	CC1(C)C/C(=N\O)c2ccc(-c3ccccc3Cl)cc21 [Example 40, (1E)-5-(2-chlorophenyl)-3,3-dimethylindan-1-one oxime]
100	CC1(C)C/C(=N\O)c2ccc(-c3cccc(Cl)c3Cl)cc21 [Example 42, (1E)-5-(2,3-dichlorophenyl)-3,3-dimethylindan-1-one oxime]
42	COc1cccc(-c2ccc3c(c2)C(C)(C)C/C3=N\O)c1 [Example 38, (1E)-5-(3-methoxyphenyl)-3,3-dimethylindan-1-one oxime]
68	Cc1ccc(-c2ccc3c(c2)C(C)(C)C/C3=N\O)cc1 [Example 34, (1E)-3,3-dimethyl-5-(4-methylphenyl)indan-1-one oxime]

Same assay, conditions: read-out: Alk. Phos. IC50

pIC50	Structure (SMILES)
7.49	Cn1c(C#N)ccc1-c1ccc2c(c1)CCC/C2=N\O [Example 15, 5-[(5E)-5-(hydroxyimino)-5,6,7,8-tetrahydronaphthalen-2-yl]-1-methyl-1H-pyrrole-2-carbonitrile]
~6.00	N#Cc1ccc(-c2ccc3c(c2)CC/C3=N\O)cc1 [Example 7, 4-[(1E)-1-(hydroxyimino)-2,3-dihydro-1H-inden-5-yl]benzonitrile]
6.34	CC1(C)C/C(=N\O)c2ccc(-c3ccc(Cl)c(Cl)c3)cc21 [Example 41, (1E)-5-(3,4-dichlorophenyl)-3,3-dimethylindan-1-one oxime]
7.19	CC1C/C(=N\O)c2ccc(-c3ccc(C#N)n3C)cc21 (stereo not shown) [Example 3, 5-[(1E)-1-(hydroxyimino)-3-methyl-2,3-dihydro-1H-inden-5-yl]-1-methyl-1H-pyrrole-2-carbonitrile]
~5.52	N#Cc1cccc(-c2ccc3c(c2)CC/C3=N\O)c1 [Example 6, 3-[(1E)-1-(hydroxyimino)-2,3-dihydro-1H-inden-5-yl]benzonitrile]

Each compound was assayed on T47D cells (assay: T47D cell proliferation assay (BrdU incorporation)). Conditions: half-maximal decrease in 0.1 trimegestone induced BrdU incorporation in T47D cells; individual Exp; read-out: EC50 (Estimated IC50).
Assay type: cell-based
Description: (a) Objective: Determination of progestational and antiprogestational potency by using a cell proliferation assay in T47D cells. A compound's effect on DNA synthesis in T47D cells is measured.
A. Reagents • (i) Growth medium: DMEM:F12 (1:1) (GIBCO, BRL) supplemented with 10% (v/v) fetal bovine serum (not heat-inactivated), 100U/mL penicillin, […] streptomycin, and 2 mM GlutaMax™ media (GIBCO, BRL). • (ii) Treatment medium: Minimum Essential Medium (MEM) (#51200-038GIBCO, BRL) phenol red-free supplemented with 0.5% charcoal stripped fetal bovine serum, 100U/mL penicillin, […] streptomycin, and 2 mM GlutaMax™ media (GIBCO, BRL).
B. Cell Culture • Stock T47 D cells are maintained in growth medium. […]
C. Cell Proliferation Assay • At the end of BrdU labeling, the medium is removed and BrdU incorporation is measured using a cell proliferation ELISA kit (#RPN 250, Amersham Life Science) according to manufacturer's instructions. […] L of 1 M sulfuric acid is added to each well to stop color reaction and optical density is read in a plate reader at 450 nm within 5 minutes.
D. Analysis of Results • Square root-transformed data are used for analysis of variance and nonlinear dose response curve fitting for both agonist and antagonist modes. […] EC50 or IC50 values are calculated from the retransformed values. […]

pIC50	Structure (SMILES)
10.80 and 10.74	CC#C[C@]1(O)CC[C@H]2[C@@H]3CCC4=CC(=O)CCC4=C3[C@@H](c3ccc(N(C)C)cc3)C[C@@]21C [RU486]

Same assay, conditions: half-maximal increase in BrdU incorporation in T47D cells; individual studies (Exp); read-out: Estimated EC50

pEC50	Structure (SMILES)
10.77 and 10.85 and 10.72	C[C@H](O)C(=O)[C@@]1(C)CC[C@H]2[C@@H]3CCC4=CC(=O)CCC4=C3CC[C@@]21C [Trimegestone]

What follows are compounds tested on rat uterine decidualization (assay: Rat decidualization assay). Conditions: p.o.; half-maximal decrease in EC50 progesterone induced decidual response; individual Exp.
Assay type: in vivo
Description: C. […] The animals are treated once daily for seven days.
Uteri are removed and trimmed of fat.
Decidual response: [(D−C)/C]×100%

Estimated IC50	Structure (SMILES)
0.21 mg/kg and 0.14 mg/kg	CC#C[C@]1(O)CC[C@H]2[C@@H]3CCC4=CC(=O)CCC4=C3[C@@H](c3ccc(N(C)C)cc3)C[C@@]21C [RU486]

Same assay, conditions: s.c.; average of dose-response curves; rat decidual response

Estimated average EC50 [mg/kg]	Structure (SMILES)
0.10	C#C[C@]1(O)CC[C@H]2[C@@H]3CCC4=CC(=O)CC[C@@H]4[C@H]3CC[C@@]21CC [Levonorgestrel]
0.10	C#C[C@]1(O)CC[C@H]2[C@@H]3CCC4=CC(=O)CC[C@@H]4[C@H]3C(=C)C[C@@]21CC [3-Ketodesogestrel]
